Results taken from the supplement of paper PMC13380429.
Where a name gives a salt, the structure may show the parent alone.

Tests used:
Details in all cases: 72 h
[1] = tested on: U2OS; experiment: cell viability relative to DMSO; higher = less toxic
[2] = tested on: Calu-3; experiment: as above
[3] = tested on: Caco-2; experiment: as above
[4] = tested on: Vero E6; experiment: as above
[5] = tested on: HepG2; experiment: as above
[6] = tested on: U2OS; experiment: drug sensitivity score (DSS) for viability; higher = more toxic; extreme values may be limits of the assay
[7] = tested on: Calu-3; experiment: as above
[8] = tested on: Caco-2; experiment: as above
[9] = tested on: Vero E6; experiment: as above
[10] = tested on: HepG2; experiment: as above
[11] = tested on: U2OS; experiment: relative viability EC50 (midpoint between 100% and the lowest measured viability); higher = less toxic
[12] = tested on: Calu-3; experiment: as above
[13] = tested on: Caco-2; experiment: as above
[14] = tested on: Vero E6; experiment: as above
[15] = tested on: HepG2; experiment: as above

Structure (SMILES)	cell viability ([1]; 1 nM)	cell viability ([1]; 10 nM)	cell viability ([1]; 100 nM)	cell viability ([1]; 1000 nM)	cell viability ([1]; 10000 nM)	cell viability ([2]; 1 nM)	cell viability ([2]; 10 nM)	cell viability ([2]; 100 nM)	cell viability ([2]; 1000 nM)	cell viability ([2]; 10000 nM)	cell viability ([3]; 1 nM)	cell viability ([3]; 10 nM)	cell viability ([3]; 100 nM)	cell viability ([3]; 1000 nM)	cell viability ([3]; 10000 nM)	cell viability ([4]; 1 nM)	cell viability ([4]; 10 nM)	cell viability ([4]; 100 nM)	cell viability ([4]; 1000 nM)	cell viability ([4]; 10000 nM)	cell viability ([5]; 1 nM)	cell viability ([5]; 10 nM)	cell viability ([5]; 100 nM)	cell viability ([5]; 1000 nM)	cell viability ([5]; 10000 nM)	drug sensitivity score [6]	drug sensitivity score [7]	drug sensitivity score [8]	drug sensitivity score [9]	drug sensitivity score [10]	relative viability EC50 [11]	relative viability EC50 [12]	relative viability EC50 [13]	relative viability EC50 [14]	relative viability EC50 [15]
C[N+](C)(C)CCCCCNCC12CC3CC(CC(C3)C1)C2 [IEM1460]	94.1%	102%	99%	103%	95.7%	91.1%	104%	96.1%	98.2%	98.4%	96.2%	103%	95%	99.6%	88.1%	105%	91%	105%	92.5%	103%	101%	85.2%	104%	93.9%	106%	0	0	0.1	0	0	> 10 µM	> 10 µM	> 10 µM	> 10 µM	> 10 µM
COC(=O)c1csc(C(=O)c2c[nH]c3ccccc23)n1 [ITE]	101%	104%	97.1%	102%	96.3%	105%	101%	103%	105%	97.5%	96.1%	105%	101%	108%	94.2%	95%	96.1%	92.1%	98.6%	97.4%	104%	112%	92.8%	84.8%	85.5%	0	0	0	0	2	> 10 µM	> 10 µM	> 10 µM	> 10 µM	> 10 µM
CCCCCOc1c(OC)ccc2cc(C(=O)NCc3ccc4c(c3)OCO4)c(=O)[nH]c12 [JTE-907]	100%	99.7%	103%	99.5%	97.4%	102%	93.9%	97.3%	105%	90.8%	90.9%	91.1%	99.9%	101%	75.7%	90.8%	99.8%	94.5%	94.3%	110%	95%	97.4%	100%	115%	103%	0	0	0.8	0	0	> 10 µM	> 10 µM	> 10 µM	> 10 µM	> 10 µM
COc1cc2nccc(Oc3ccc(NC(=O)Nc4ccc(F)cc4F)c(F)c3)c2cc1OC [KI-8751]	98.8%	97.6%	99.2%	99.2%	102%	94.1%	97.6%	86.8%	95.7%	93.1%	95.8%	91.8%	102%	92.4%	99.6%	101%	107%	98.9%	107%	107%	97.5%	116%	106%	101%	95.5%	0	0	0	0	0	> 10 µM	> 10 µM	> 10 µM	> 10 µM	> 10 µM
CC(C)C(=O)Nc1ncc(-c2cc(C(F)F)nn2-c2c(Cl)cccc2Cl)s1 [LIMKi-3]	98.1%	106%	96.3%	100%	88.9%	88.4%	92.7%	98.5%	118%	115%	91.4%	105%	92.8%	94.6%	97.3%	106%	101%	101%	92.2%	96%	110%	98%	104%	106%	110%	0	0	0	0	0	> 10 µM	> 10 µM	> 10 µM	> 10 µM	> 10 µM
COC(=O)C(c1ccccc1)C1CCCCN1 (stereo not given) [METHYLPHENIDATE HYDROCHLORIDE]	96.5%	102%	92.1%	95.3%	98.6%	100%	102%	91.1%	105%	101%	97%	99.5%	91.2%	103%	104%	99.7%	97.3%	98.5%	98.9%	102%	108%	95.2%	91.4%	102%	99%	0	0	0	0	0	> 10 µM	> 10 µM	> 10 µM	> 10 µM	> 10 µM
Cc1cnc(-c2ccccc2C(C)C)nc1NCc1ccc(-n2ccnn2)cc1 [ML323]	94.9%	103%	95.8%	102%	97.9%	91.6%	108%	105%	97.3%	110%	90.2%	101%	92.2%	95.8%	81%	89.6%	90%	87.6%	89.7%	99.4%	99.1%	94.2%	112%	96.5%	82.2%	0	0	0.5	0	0.8	> 10 µM	> 10 µM	> 10 µM	> 10 µM	> 10 µM
